The record followed here is patent US20240335547A1, “MODIFIED CHOLIC ACID CONJUGATES” (priority 2022, published 2024).

What is called EC50 is the midpoint of the concentration-response curve. Higher therefore signals lower potency in that assay.

Data set [1] has as its system HFF (human foreskin fibroblast) cells. As to the kind of experiment: Cytotoxicity in human primary cell cultures (Trypan Blue Staining). The conditions noted are these: HFF cells, 48 hours, Trypan Blue Staining. Format: cell-based. The protocol:
(1) HFF (human foreskin fibroblast) cells (2×105) were seeded with 2 ml of DMEM medium supplemented with 10% FBS in each well of two 12-well tissue culture plates. (2) Cells were cultured for 3 days. CSA-44 was added to test for cell toxicity. Eleven concentrations were tested: 40 μg/ml, 30 μg/ml, […], 17.5 μg/ml, 15 μg/ml, 12.5 μg/ml, 10 μg/ml, 7.5 μg/ml, 5 μg/ml, 2.5 μg/ml, and 1 μg/ml. Samples with concentration of 0 μg/ml were used as the control. Each concentration was tested in duplicates with two wells. (3) Cells were cultured for 48 hours with CSA-44. Trypan Blue Staining was used to determine the numbers of living and dead cells on a hemocytometer. Percentages of living and dead cells in each sample were calculated.
(1) HFF cells (2×105) were seeded with 2 ml of DMEM medium supplemented with 10% FBS in each well of two 12-well tissue culture plates. (2) Cells were cultured for 3 days. CMA Conjugate was added to test for cell toxicity. Eleven concentrations were tested. They were 100 μg/ml, 80 μg/ml, 60 μg/ml, 50 μg/ml, 40 μg/ml, 30 μg/ml, 25 μg/ml, 20 μg/ml, 15 μg/ml, 10 μg/ml, and 5 μg/ml. Samples with concentration of 0 μg/ml were used as the control. Each concentration was tested in duplicates with two wells. (3) Cells were cultured for 48 hours with CMA Conjugate. […] Percentages of living and dead cells in each sample were calculated.

For the next data set, the system named is human coronavirus 229E. Description: Therapeutic activity against human coronavirus 229E in HFF cells. Particulars: added 24 hours post infection, cell viability. Format: cell-based. The protocol: (1) HFF cells (5×104) were seeded with 1 ml of DMEM media supplemented with 10% FBS in each well of four 24-well tissue culture plates. (2) Cell were cultured for 3 days until HFF cells in each well attained 90% confluency (media was changed 1 day before infection). 10 μl of the 10-time diluted original solution of coronavirus, about 1×10^5 PFU were added into each well. Infection was allowed to proceed overnight. (3) The media was changed 24 hours post infection. CSA-44 was added to test their anti-viral effects. Ten different concentrations of the drug were tested. They were 15 μg/ml, 10 μg/ml, 9 μg/ml, 8 μg/ml, 7 μg/ml, 6 μg/ml, 5 μg/ml, 4 μg/ml, 3 μg/ml, and 2 μg/ml with 0 μg/ml as the control. Each concentration has 12 wells for test. Cells were cultured for two weeks, and cell viability was quantified. CSA-44 was effective in inhibiting viral replication and growth. The values of EC50 (where EC is the concentration of the active that gives 50% of the maximal response) of CSA-44 is identified as 4 μg/ml.
(1) HFF cells (5×104) were seeded with 1 ml of DMEM media supplemented with 10% FBS in each well of four 24-well tissue culture plates. (2) Cells were cultured for 3 days until HFF cells in each well attained 90% confluency (media was changed 1 day before infection). Ten μl of the 10-time diluted original solution of coronavirus, about 1×10^5 PFU, were added into each well. Infection was allowed to proceed overnight. (3) The media was changed 24 hours post infection. Different concentrations of CSA-44 were added to test their anti-viral effects. Each concentration has 12 wells for test. Cells were cultured in the presence of CSA-44 for […] and cell viability was quantified.
(1) HFF cells (5×104) were seeded with 1 ml of DMEM media supplemented with 10% FBS in each well of four 24-well tissue culture plates. (2) Cells were cultured for 3 days until HFF cells in each well attained 90% confluency (media was changed 1 day before infection). […] Cells were cultured for two weeks, and cell viability was quantified. […]

Structures are written as SMILES. Converted amounts (≈) assume the structure as drawn.

For the molecule `CCCCCCCCOC(=O)CC[C@@H](C)[C@H]1CC[C@H]2[C@@H]3[C@H](OC(=O)CCN)C[C@@H]4C[C@H](OC(=O)CCN)CC[C@]4(C)[C@H]3C[C@H](OC(=O)CCN)[C@]12C` [CSA-44], the CC50 result in data set [1] was “around 15 μg/ml”. The EC50 in the data set with human coronavirus 229E (cells cultured for three weeks) was around 4 µg/mL (≈ 5.45 µM); in the data set with human coronavirus 229E (cells cultured for two weeks) it was 4 µg/mL (≈ 5.45 µM).
